Consider six molecules from ChEMBL document CHEMBL1201862, “PubChem BioAssay data set” (2004).

Calls of active or inactive are those of the source.

The target in experiment [1] is T1, Tyrosine-protein phosphatase non-receptor type 7 (Homo sapiens, UniProt P35236).
T1 sequence (P35236 whole entry): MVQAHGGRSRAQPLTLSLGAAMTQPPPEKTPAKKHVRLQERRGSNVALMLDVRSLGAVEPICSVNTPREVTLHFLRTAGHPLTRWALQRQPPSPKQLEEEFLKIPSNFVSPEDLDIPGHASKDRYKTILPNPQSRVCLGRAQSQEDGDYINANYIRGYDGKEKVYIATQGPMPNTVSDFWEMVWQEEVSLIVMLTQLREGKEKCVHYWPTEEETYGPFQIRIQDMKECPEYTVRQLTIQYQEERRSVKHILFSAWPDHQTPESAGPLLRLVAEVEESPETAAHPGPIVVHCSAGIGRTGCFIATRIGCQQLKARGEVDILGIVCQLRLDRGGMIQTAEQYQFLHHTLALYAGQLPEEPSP
Nature of the experiment: inhibitors of human HePTP phosphatase, […], biochemical, absorbance, leukemia target (AID 521). It counts as functional.

A short description of experiment [2]: P. falciparum Dd2 growth inhibitors, dose response, SYBR Green, dry powder samples, set 9 (AID 1159568). The format is functional, cell-based.
A short description of experiment [3]: P. falciparum Dd2 growth inhibitors, dose response, SYBR Green, cherry-picked samples (AID 1159567). It counts as functional, cell-based.
Experiment [4] has as its target Glutathione-S-transferase (Schistosoma japonicum, UniProt Q26513). Briefly: biotin-GST/anti-GST TR-FRET signal inhibitors, dose response, artefact control for Vif-APOBEC3G degradation inhibitor project, biochemical (AID 1117362). It counts as functional. Background: In TR-FRET formats the signal depends on donor and acceptor labels being close together.
Experiment [5] is described as follows: Jurkat T cell cytotoxicity, dose response, cytotoxicity control for P. falciparum gametocyte viability project, luminescence (AID 1117277).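 Further: potency reflects loss of cellular ATP meaning fewer viable cells.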 The format is functional, cell-based.
Experiment [6] can be described thus: P. falciparum late gametocyte killing, dose response, luminescence (AID 1117278).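 Further: gametocytes exposed to compound for 24 hours.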 The format is functional, cell-based.
The target of experiment [7] is G-protein coupled receptor 183 (Homo sapiens, UniProt P32249). Briefly: SAR confirmation of small molecule antagonists of the EBI2 receptor via a luminescent beta-arrestin assa. It counts as functional.
Experiment [8] can be described thus: inhibitors of HIV Env-driven cell fusion, dose response, cherry-pick (AID 652057). The format is functional, cell-based.
Experiment [9] has as its target Dual specificity protein phosphatase 6 (Rattus norvegicus, UniProt Q64346). Nature of the experiment: MKP-3 phosphatase inhibitors, primary screen, biochemical, rat enzyme, in vitro (AID 425).
For experiment [10], the target named is T2, Bcl-2-related protein A1 (Mus musculus, UniProt Q07440).
T2 sequence (Q07440 whole entry): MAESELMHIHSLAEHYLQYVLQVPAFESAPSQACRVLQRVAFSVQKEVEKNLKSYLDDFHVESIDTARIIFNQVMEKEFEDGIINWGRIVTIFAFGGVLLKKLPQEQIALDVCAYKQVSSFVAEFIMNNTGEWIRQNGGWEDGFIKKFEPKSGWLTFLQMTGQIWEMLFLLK
Briefly: Bfl-1 inhibitors blocking BH3 peptide binding, confirmation, biochemical, TR-FRET, mouse Bfl-1 (AID 621).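 Further: TR-FRET binding of GST-Bfl-1 to FITC-labelled Bid peptide via terbium antibody.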

The nature of experiment [11]: off-target signal loss in HeLa-CEM21 co-culture – HeLa F-luc CTL cells, cherry-picked, counter-screen for HIV-1 Env fusion inhibitor project, dose response (AID 652040).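 Further: potency for signal decrease marking cytotoxic or nonspecific inhibition.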 The format is functional, cell-based. (In general: Counterscreens check selectivity or assay interference.)
A short description of experiment [12]: inhibitors of clade B AD8 Env fusion, dose response, cell-based, cherry-pick (AID 652062).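 Further: luciferase signal from cell-cell fusion driven by HIV-1 clade B AD8 Env; potency is for inhibitors of fusion seen as a drop in luminescence.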 It counts as functional.
Experiment [13] is described as follows: CEM21 lymphoblast cell cytotoxicity, dose response, cytotoxicity control for viral fusion inhibitor project, CellTiter-Glo luminescence, cherry-picked (AID 652042).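 Further: potency for signal decrease meaning cytotoxicity.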 It counts as functional, cell-based. In general terms: Cellular ATP, detected with luciferase, serves as a proxy for viable cell number.
Experiment [14] can be described thus: ZM109 Env clade C HIV-1 fusion inhibitors, dose response, HeLa effector, CEM target cells, luciferase, cherry-pick (AID 652058). The format is functional, cell-based.
In experiment [15] the target is T2, Bcl-2-related protein A1. Briefly: Bfl-1 inhibitors, primary screen, biochemical, fluorescence polarization, FITC-Bid, mouse (AID 432).

Chain of Dual specificity protein phosphatase 6 (Q64346 whole entry): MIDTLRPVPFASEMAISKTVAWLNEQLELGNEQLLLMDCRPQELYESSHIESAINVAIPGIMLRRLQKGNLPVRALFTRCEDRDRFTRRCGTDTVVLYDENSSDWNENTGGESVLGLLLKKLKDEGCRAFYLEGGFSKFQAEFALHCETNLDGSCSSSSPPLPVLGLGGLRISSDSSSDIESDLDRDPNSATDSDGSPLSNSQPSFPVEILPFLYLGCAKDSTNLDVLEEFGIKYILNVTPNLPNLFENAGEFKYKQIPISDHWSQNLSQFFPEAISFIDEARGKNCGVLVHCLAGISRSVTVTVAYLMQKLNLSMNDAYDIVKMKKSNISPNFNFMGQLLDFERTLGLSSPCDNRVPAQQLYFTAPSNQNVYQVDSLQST
Chain of Glutathione-S-transferase (Q26513 whole entry): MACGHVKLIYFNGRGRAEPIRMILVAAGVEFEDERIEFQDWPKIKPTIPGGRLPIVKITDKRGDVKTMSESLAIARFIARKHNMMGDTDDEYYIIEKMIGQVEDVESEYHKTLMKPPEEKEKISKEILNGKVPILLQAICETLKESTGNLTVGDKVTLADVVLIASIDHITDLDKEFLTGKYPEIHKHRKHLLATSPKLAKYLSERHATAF
Chain of G-protein coupled receptor 183 (P32249 whole entry, the tested form may be a part): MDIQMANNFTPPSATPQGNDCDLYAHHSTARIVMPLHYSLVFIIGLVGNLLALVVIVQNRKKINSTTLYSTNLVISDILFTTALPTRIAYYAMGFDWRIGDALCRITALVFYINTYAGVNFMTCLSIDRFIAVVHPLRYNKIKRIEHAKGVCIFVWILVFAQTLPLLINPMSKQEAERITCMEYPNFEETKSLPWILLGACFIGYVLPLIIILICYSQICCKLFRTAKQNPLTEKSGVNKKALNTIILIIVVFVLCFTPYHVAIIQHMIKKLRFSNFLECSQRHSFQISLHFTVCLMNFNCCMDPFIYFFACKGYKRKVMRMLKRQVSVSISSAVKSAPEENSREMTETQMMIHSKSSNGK

For `CC(C)(C#N)Nc1ccccc1`, in [1], the IC50 is > 100 µM (not active).
`CN1C(=O)c2cc(NC(=O)c3cccc(F)c3)ccc2OC[C@H]2O[C@H](CC(=O)NCC3CCCCC3)CC[C@H]21`: the half-maximal activity concentration (AC50) was 8.12 µM (active) in experiment [2] and 8.99 µM (active) in [3].
`O=[N+]([O-])c1ccc(-c2ccc(/C=N/c3c(-c4ccco4)nc4ccccn34)o2)cc1`: the IC50 in experiment [4] is 50.3 µM (active).
`CN(C)S(=O)(=O)N1CCC(Oc2ccc(C(=O)NCc3cnn(C)c3)cc2)CC1`: the IC50 was > 83.3 µM (inactive) in [5] and > 109 µM (inactive) in [6].
Take `CCN1CCN(C(=O)/C=C/c2ccc(Br)cc2)CC1`: the IC50 in [7] is 0.0158 µM (active).
Consider `Cc1ccc(-c2nn3c(C)nnc3s2)cc1NC(=O)c1ccc(-c2ccc(Cl)cc2Cl)o1`, for which the AC50 in experiment [8] was 6.5 µM (active); in experiment [11] it was 9.7 µM (active); in [12], 5.1 µM (active); in experiment [13], 6.8 µM (active); in [14] it was 4.6 µM (active). Besides, the IC50 in experiment [9] was > 10 µM (not active); in [10], > 100 µM (not active); in experiment [15], > 100 µM (not active).

One may read the IC50 as the concentration at which inhibition is half-maximal. The term AC50 denotes the midpoint of the concentration-response curve, whichever way the signal moves.
